This experiment deals with human TRPA1 (Homo sapiens, UniProt O75762). Description: FLIPR Ca2+ assay, reduction of hydrogen peroxide activation of TRPA1. Set-up: expressed in transfected cells. To be noted: for inhibition at 400 µM / inhibition at 100 µM: read-out: % Reduction of Hydrogen Peroxide TRPA1 Activation. It is filed as cell-based. On the procedure:
After centrifugation, a pellet of cells was formed in the bottom of the tube separating them from the supernatant solution.
The pelleted cells were re-suspended in 10 ml assay buffer and 90 μl aliquots (˜50,000 cells) per well delivered to a 96-well assay plate containing 10 μl of test compounds ([…]) or buffer control and incubated at room temperature for 30 minutes.

The mark [1] stands for this setting: antagonist 400 μM against 200 μM hydrogen peroxide.
Where [2] appears, read: 100 μM antagonist vs 500 μM hydrogen peroxide.
Where [3] appears, read: compound 100 μM against 200 μM hydrogen peroxide, Sets 1-4.
Setting [4] is: 400 μM antagonist vs 500 μM hydrogen peroxide.

SMILES strings stand for the structures. Where two headings read alike, the source gives them in different places.

Sequence of human TRPA1 (O75762 whole entry): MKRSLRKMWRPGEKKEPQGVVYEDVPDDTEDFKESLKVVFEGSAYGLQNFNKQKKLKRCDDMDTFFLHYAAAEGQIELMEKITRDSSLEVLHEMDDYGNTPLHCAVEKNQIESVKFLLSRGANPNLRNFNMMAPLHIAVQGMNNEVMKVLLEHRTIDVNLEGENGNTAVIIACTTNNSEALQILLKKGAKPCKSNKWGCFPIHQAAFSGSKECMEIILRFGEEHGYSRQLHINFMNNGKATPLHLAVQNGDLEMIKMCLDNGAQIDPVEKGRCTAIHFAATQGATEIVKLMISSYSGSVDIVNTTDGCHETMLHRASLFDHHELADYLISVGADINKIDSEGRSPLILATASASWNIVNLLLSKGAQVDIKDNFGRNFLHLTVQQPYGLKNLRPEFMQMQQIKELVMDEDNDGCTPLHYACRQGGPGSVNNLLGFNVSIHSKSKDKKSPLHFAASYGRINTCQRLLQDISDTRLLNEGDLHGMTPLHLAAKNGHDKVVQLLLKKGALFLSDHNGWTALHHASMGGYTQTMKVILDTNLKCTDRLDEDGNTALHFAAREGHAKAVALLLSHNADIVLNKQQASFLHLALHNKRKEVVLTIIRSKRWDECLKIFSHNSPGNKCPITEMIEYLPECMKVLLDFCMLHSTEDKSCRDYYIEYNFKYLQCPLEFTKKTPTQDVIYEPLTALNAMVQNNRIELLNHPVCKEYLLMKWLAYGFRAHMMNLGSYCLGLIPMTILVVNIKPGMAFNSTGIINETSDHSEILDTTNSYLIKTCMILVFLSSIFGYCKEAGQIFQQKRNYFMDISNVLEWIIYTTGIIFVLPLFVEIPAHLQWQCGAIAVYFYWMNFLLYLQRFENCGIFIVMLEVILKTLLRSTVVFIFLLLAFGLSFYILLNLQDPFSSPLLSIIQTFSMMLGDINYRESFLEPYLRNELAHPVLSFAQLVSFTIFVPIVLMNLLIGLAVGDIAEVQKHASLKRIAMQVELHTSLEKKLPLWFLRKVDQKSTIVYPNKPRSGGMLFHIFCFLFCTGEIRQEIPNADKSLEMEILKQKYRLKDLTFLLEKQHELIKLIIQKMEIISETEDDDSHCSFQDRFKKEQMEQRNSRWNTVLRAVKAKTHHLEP

On to `CCCC1CC(=O)C=C(C)C1` (stereo not shown) [Celery Ketone, 2-Cyclohexen-1-one, 3-methyl-5-propyl-], for which the inhibition at 400 µM under setting [1] worked out at 56%.

Turning to `CCCCO` [n-butyl alcohol], the “% Reduction of Hydrogen Peroxide TRPA1 Activation” value (from here on “% Reduction”) amounted to 57.3%, the “Average Ca++ Counts” value is listed as 3009.0 Counts and the “Block of hydrogen peroxide activation of TRPA1” value (“Block” for short) is “BLOCK ONLY H2O2/TRPA1”.

As for `CCCc1ccc(O)c(OC)c1` [2-Methoxy-4-propyl-phenol], the “Block” value is “BLOCK ONLY H2O2/TRPA1” and the inhibition at 400 µM amounted to 43%.

Regarding `CCC=C(C)C(=O)O` [2-methyl-2-pentenoic acid], under setting [2], the “Block” value is recorded as “BLOCK ONLY H2O2/TRPA1”. Under setting [3], the “Average Ca++ Counts” value worked out at 5040.0 Counts and the inhibition at 100 µM was determined as 52.4%.

`CSCCC(C)=O` [4-methylthio-2-butanone]: under setting [3], the “Average Ca++ Counts” value came out at 3322.5 Counts and the inhibition at 100 µM came out at 43.5%.

As for `CC1=CCC(C(C)C)=CC1` [gamma-terpinene], the “Block” value under setting [2] is reported as “BLOCK ONLY H2O2/TRPA1”. Further, under setting [3], the “Average Ca++ Counts” value came to 3124.0 Counts and the inhibition at 100 µM worked out at 55.6%.

In the case of `CC(=O)c1ccc(C)cc1` [4′-methylacetophenone], the “Block” value under setting [2] was “BLOCK ONLY H2O2/TRPA1”. Under setting [3], the “Average Ca++ Counts” value was determined as 3244.5 Counts and the inhibition at 100 µM amounted to 53.9%.

As to `CC12CCC(C1)C(C)(C)C2=O` (stereo not shown) [fenchone], the “Block” value under setting [2] is listed as “BLOCK ONLY H2O2/TRPA1”. Further, under setting [3], the “Average Ca++ Counts” value is given as 2761.5 Counts and the inhibition at 100 µM is 60.8%.

Consider `CCCCCC(=O)CCCCC` [6-undecanone], for which, under setting [2], the “Block” value was “BLOCK ONLY H2O2/TRPA1”. Also, under setting [3], the “Average Ca++ Counts” value was found to be 3357.5 Counts and the inhibition at 100 µM is 52.3%.

With `CCCCCCCCCC(C)O` (stereo not shown) [2-undecanol], the “Block” value under setting [2] is reported as “BLOCK ONLY H2O2/TRPA1”. In addition, under setting [3], the “Average Ca++ Counts” value stood at 3049.0 Counts and the inhibition at 100 µM worked out at 56.7%.

On to `O=C(O)c1cccc(O)c1` [3-hydroxybenzoic acid], for which the “Block” value under setting [2] is “BLOCK ONLY H2O2/TRPA1”. Under setting [3], the “Average Ca++ Counts” value stood at 3284.5 Counts and the inhibition at 100 µM worked out at 53.4%.

`NC(N)=O` [urea]: the “% Reduction” value amounted to 52.4%, the “Average Ca++ Counts” value is recorded as 5045.5 Counts and the “Block” value was “BLOCK ONLY H2O2/TRPA1”.

As for `CCCC(=O)CC` [3-hexanone], the “Block” value under setting [2] is reported as “BLOCK ONLY H2O2/TRPA1”. Under setting [3], the “Average Ca++ Counts” value stood at 3381.5 Counts and the inhibition at 100 µM is 52%.

As to `CCCCOC(=O)C(C)O` (stereo not shown) [butyl lactate], the “Block” value under setting [2] is given as “BLOCK ONLY H2O2/TRPA1”. Under setting [3], the “Average Ca++ Counts” value is recorded as 5157.0 Counts and the inhibition at 100 µM was found to be 51.3%.

Take `O=Cc1ccc(O)cc1` [4-hydroxybenzaldehyde]: under setting [3], the “Average Ca++ Counts” value is recorded as 3424.5 Counts and the inhibition at 100 µM stood at 51.4%.

With `COC(=O)CCCc1ccccc1` [Methyl-4-phenyl butyrate], the “Block” value under setting [4] is on record as “BLOCK ONLY H2O2/TRPA1”. In addition, the “% Reduction” value under setting [1] was determined as 60%.

For the molecule `CCC(S)C(C)=O` (stereo not shown) [3-mercapto-2-pentanone], the “Block” value under setting [2] is “BLOCK ONLY H2O2/TRPA1”. Besides, under setting [3], the “Average Ca++ Counts” value was determined as 1255.5 Counts and the inhibition at 100 µM was found to be 82.2%.

`CC(=O)c1ccc(C)o1` [2-acetyl-5-methylfuran]: under setting [2], the “Block” value was “BLOCK ONLY H2O2/TRPA1”. Besides, under setting [3], the “Average Ca++ Counts” value stood at 2937.0 Counts and the inhibition at 100 µM was 58.3%.

For the molecule `COC(=O)c1ccccc1OC` [Methyl 2-methoxy-benzoate], the “Block” value under setting [4] is reported as “BLOCK ONLY H2O2/TRPA1”. The inhibition at 400 µM under setting [1] was 48%.

Take `CCCCCCC1CCCC(=O)O1` (stereo not shown) [Undecanoic-δ-Lactone]: the “% Reduction” value is recorded as −42%.

Turning to `OCc1ccccc1` [phenyl-methanol], the “Block” value under setting [2] is on record as “BLOCK ONLY H2O2/TRPA1”. Under setting [3], the “Average Ca++ Counts” value is 5244.5 Counts and the inhibition at 100 µM came out at 50.5%.

Take `C=C(C)c1ccc(C)cc1` [alpha,p-dimethylstyrene]: under setting [3], the “% Reduction” value was determined as 57.2% and the “Average Ca++ Counts” value is on record as 3735.5 Counts.

Take `O=C(O)CC(O)C(=O)O` (stereo not shown) [malic acid]: the “Block” value under setting [2] is on record as “BLOCK ONLY H2O2/TRPA1”. Moreover, under setting [3], the “Average Ca++ Counts” value worked out at 5617.5 Counts and the inhibition at 100 µM amounted to 47%.

With `CCCCC(=O)C(C)C` [2-methyl-3-heptanone], under setting [2], the “Block” value is “BLOCK ONLY H2O2/TRPA1”. Further, under setting [3], the “Average Ca++ Counts” value was 4994.0 Counts and the inhibition at 100 µM amounted to 52.9%.

With `CSCSCSC` [2,4,6-trithiaheptane], under setting [2], the “Block” value is reported as “BLOCK ONLY H2O2/TRPA1”. Moreover, under setting [3], the “Average Ca++ Counts” value came out at 4610.5 Counts and the inhibition at 100 µM came out at 56.5%.

`CC(=O)c1cccnc1` [3-acetylpyridine, 98%, 3-acetylpyridine]: under setting [2], the “Block” value is “BLOCK ONLY H2O2/TRPA1”. Moreover, under setting [3], the “Average Ca++ Counts” value was determined as 2981.0 Counts and the inhibition at 100 µM came out at 57.7%.

Take `CC(=O)C(=O)OCCC(C)C` [isoamyl pyruvate]: the “Block” value under setting [2] was “BLOCK ONLY H2O2/TRPA1”. Further, under setting [3], the “Average Ca++ Counts” value stood at 2824.0 Counts and the inhibition at 100 µM was determined as 59.9%.

As for `CCCCC/C=C\C/C=C\CCCCCCCC(=O)OC` [methyl linoleate], the “Block” value under setting [2] was “BLOCK ONLY H2O2/TRPA1”. In addition, under setting [3], the “Average Ca++ Counts” value was determined as 3363.5 Counts and the inhibition at 100 µM is 52.2%.

For `CCCCCCC1OCC(C)O1` (stereo not shown) [2-hexyl-4-methyl-1,3-dioxolan], under setting [3], the “Average Ca++ Counts” value was 3376.0 Counts and the inhibition at 100 µM amounted to 52.1%.

For `CCCCCCCCCCCO` [1-undecanol], the “Block” value under setting [2] is listed as “BLOCK ONLY H2O2/TRPA1”. Besides, under setting [3], the “Average Ca++ Counts” value is 3396.0 Counts and the inhibition at 100 µM was determined as 51.8%.

On to `CC1=CC(=O)[C@@H]2C[C@H]1C2(C)C` (racemic) [dl-verbenone], for which the “% Reduction” value amounted to 54.1%, the “Average Ca++ Counts” value worked out at 3231.0 Counts and the “Block” value is given as “BLOCK ONLY H2O2/TRPA1”.

On to `CCC(C)(O)CCc1ccccc1` (stereo not drawn) [ethyl methyl beta-phenylethyl carbinol], for which the “Block” value under setting [2] is “BLOCK ONLY H2O2/TRPA1”. Moreover, under setting [3], the “Average Ca++ Counts” value is given as 2253.5 Counts and the inhibition at 100 µM is 68%.

`CC(C)CCCC(C)CCO` (stereo not shown) [3,7-dimethyl-1-octanol, 95%, 3,7-dimethyl-1-octanol]: under setting [3], the “Average Ca++ Counts” value was 5168.0 Counts and the inhibition at 100 µM turned out to be 51.2%.

Regarding `c1ccc(CCCC2CCCO2)cc1` (stereo not shown) [2-(3-Phenylpropyl) tetrahydrofuran], the “Block” value under setting [4] is reported as “BLOCK ONLY H2O2/TRPA1”. The inhibition at 400 µM under setting [1] turned out to be 74%.

Consider `CC(=O)OCCC(C)CCC=C(C)C` (stereo not shown) [Citronellyl acetate], for which the “Block” value under setting [4] is on record as “BLOCK ONLY H2O2/TRPA1”. The inhibition at 400 µM under setting [1] stood at 70%.

With `O=C1O[C@H]([C@H](O)CO)C([O-])=C1O.[Na+]` [sodium erythorbate], the “% Reduction” value is 54.5%, the “Average Ca++ Counts” value stood at 3204.5 Counts and the “Block” value is recorded as “BLOCK ONLY H2O2/TRPA1”.

Take `Cc1ccc(C)c(O)c1` [2,5-dimethylphenol]: under setting [2], the “Block” value is given as “BLOCK ONLY H2O2/TRPA1”. Besides, under setting [3], the “Average Ca++ Counts” value is 5208.0 Counts and the inhibition at 100 µM worked out at 50.8%.

For `CCCCCCCC1CC(C)OC1=O` (stereo not shown) [3-Heptyldihydro-5-methyl-2(3H)-furanone], under setting [4], the “Block” value is recorded as “BLOCK ONLY H2O2/TRPA1”. The inhibition at 400 µM under setting [1] stood at 59%.

Consider `CCC(C)CS` (stereo not shown) [2-methyl-1-butanethiol], for which the “Block” value under setting [2] is recorded as “BLOCK ONLY H2O2/TRPA1”. Moreover, under setting [3], the “Average Ca++ Counts” value stood at 3208.0 Counts and the inhibition at 100 µM turned out to be 54.5%.

Turning to `CC(C)CCO` [isopentyl alcohol], the “Block” value under setting [2] is recorded as “BLOCK ONLY H2O2/TRPA1”. Moreover, under setting [3], the “Average Ca++ Counts” value was found to be 3778.0 Counts and the inhibition at 100 µM was 56.7%.

As to `CCCCCCO` [1-hexanol], under setting [2], the “Block” value is on record as “BLOCK ONLY H2O2/TRPA1”. Further, under setting [3], the “Average Ca++ Counts” value came to 5664.5 Counts and the inhibition at 100 µM is 46.5%.

Consider `CC(C)COC(=O)C(C)C` [isobutyl isobutyrate], for which the “Block” value under setting [2] is recorded as “BLOCK ONLY H2O2/TRPA1”. For the same molecule, under setting [3], the “Average Ca++ Counts” value amounted to 3383.0 Counts and the inhibition at 100 µM was found to be 52%.

In the case of `C[C@H]1CC[C@]2(O1)C(C)(C)CCC[C@]2(C)O` [Hydroxydihydrotheaspirane, 1-Oxaspiro[4.5]decan-6-ol, 2,6,10,10-tetramethyl-, (2S,5S,6S)-6-], the “% Reduction” value under setting [1] amounted to 57%.

With `CCCCCC(=O)OC(C)C` [isopropyl hexanoate], under setting [2], the “Block” value is “BLOCK ONLY H2O2/TRPA1”. Under setting [3], the “Average Ca++ Counts” value is on record as 2862.0 Counts and the inhibition at 100 µM is 59.4%.

For `CC(C)CC(=O)OCCc1ccccc1` [phenylethyl isovalerate], the “Block” value under setting [2] is “BLOCK ONLY H2O2/TRPA1”. Further, under setting [3], the “Average Ca++ Counts” value came out at 3291.5 Counts and the inhibition at 100 µM was 53.3%.
